Data set [1] relates to Human leukemia cells (HL-60). The data set can be described thus: Cell growth inhibition by direct cell counting, HL-60. The class given is cell-based. Particulars: HL-60 cells, drug concentration at 50% cell growth inhibition, read-out: IG50 (the source's name). The protocol:
(§1) Cells were taken out carefully from liquid nitrogen (Frozen pipes), and the cell freezing medium was thawed rapidly in water bath at 37° C. in order to rapidly pass through the temperature range of 0 to 5° C. within which the cell is easily damaged. Cell suspension was sucked with pipette gun and put it into centrifugal tubes under sterile condition, then was centrifuged for 3 min at 1300 r/min. The supernatant was gently discarded, and then added with a fresh medium to pipette and mix the cells. Finally, the cells were transferred into culture flasks, and cultured in a carbon dioxide incubator. The medium was changed once after 24 h.
(§2) Human leukemia cells (HL-60) were cultured in RPMI1640 medium containing 10% (v/v) fetal bovine serum, 100 U/mL penicillin and 100 μg/mL streptomycin. Murine leukemia cells (P388) and murine multidrug resistant leukemia cells (P388/Adr) were cultured in Eagle's minimum essential medium (MEM) containing 10% (v/v) fetal bovine serum, 100 U/mL penicillin and 100 μg/mL streptomycin. All of the above cell lines were incubated in 37° C. incubator with 5% carbon dioxide saturated humidity.
(§3) After resuscitation, the cells were passed for 2-3 generations till they became stable, then they were used for the experiments. Each passage was based on the standard that all cells were spread over the bottoms of culture flasks.
(§4) Cell suspensions of a certain density (5×10^4 cells/mL) were plated at 24-well plate, 2 mL/well. Different concentration of drugs were added thereto, and incubated or some time. Then, cells were counted under the microscope. The ratio of total number of cells in test group to the total number of cells in control group is the cell growth inhibition rate under the concentration condition. The total number of cells in cell suspension, which were treated by drugs, could be counted by blood count board. Inhibition rate was calculated using the formula: […]
(§5) According to cell growth inhibition rate of each concentration of drugs, half inhibitory concentration could be calculated. (IG50 is the drug concentration, when cell growth inhibition rate was 50%.)

For data set [2], the system named is Murine leukemia cells (P388). Description: Cell growth inhibition by direct cell counting, P388. Format: cell-based. The conditions noted are these: read-out: IG50 P388. The protocol: as §1, §2, §3, §4, §5
(§6) 6) The Results of the Growth Inhibitory Activity of the Compounds on Murine Leukemia Cells (P388) and Murine Multidrug Resistant Leukemia Cells (P388/Adr) were Listed in Table 2.

Data set [3] deals with murine multidrug resistant leukemia cells (P388/Adr). The data set can be described thus: Cell growth inhibition by direct cell counting, P388/Adr. Format: cell-based. The conditions noted are these: read-out: IG50 P388/Adr. How it is done: as §1, §2, §3, §4, §5, §6
In data set [4] the test system is Human Breast Cancer Cells (MCF-7). The data set can be described thus: Cell growth inhibition by direct cell counting, MCF-7. Particulars: read-out: IG50 MCF-7. Format: cell-based. How it is done: as §1, §3, §4, §5
(§7) 7) The Results of the Growth Inhibitory Activity of the Compounds on Human Breast Cancer Cells (MCF-7) and Human Multidrug Resistant Breast Cancer Cells (MCF-7/Adr) were Listed in Table 3.

Data set [5] relates to Human Multidrug Resistant Breast Cancer Cells (MCF-7/Adr). The data set can be described thus: Cell growth inhibition by direct cell counting, MCF-7/Adr. The class given is cell-based. The conditions noted are these: read-out: IG50 MCF-7/Adr. How it is done: as §1, §3, §4, §5, §7
Where [6] appears, read: Homo sapiens, MCF7, MCF-7 cells.
Setting [7] is: Homo sapiens, NCI/ADR-RES, MCF-7/Adr multidrug resistant cells.
Where [8] appears, read: MCF-7/Adr multidrug resistant cells.

Read-outs that look alike come from different tables or passages of the source.

The source of these data is patent publication US9718837B2, “Nitrogen-containing heterocyclic ring substituted dihydroartemisinin derivatives and use thereof” (Shenyang Pharmaceutical University, priority 2013, dated 2017).

As to `CCN1CCN(Cc2ccc(O[C@H]3O[C@@H]4O[C@@]5(C)CC[C@H]6[C@H](C)CC[C@@H]([C@H]3C)[C@@]46OO5)cc2)CC1` [Example 8, (10S)—O-[4-((4-ethylpiperazin-1-yl)methyl)phenyl]-dihydroartemisinin], in data set [1], the IC50 came to 0.083 µM.
Regarding `C[C@H]1[C@@H](Oc2ccc(/C=C/C(=O)N3CCN(C)CC3)cc2)O[C@@H]2O[C@@]3(C)CC[C@H]4[C@H](C)CC[C@@H]1[C@@]24OO3` [Example 24], the IC50 came out at 0.299 µM in data set [2] and 0.918 µM in data set [3].
Consider `CC1CCC2C(C)[C@@H](Oc3ccc(CN4CCC(N5CCCCC5)CC4)cc3)OC3OC4(C)CCC1C32OO4` (stereo partly drawn) [Example 6, (10S)—O-[4-[(4-(piperidinyl)piperidin-1-yl)methyl]phenyl]-dihydroartemisinin], for which, in data set [1], the IC50 is 0.079 µM.
As to `CC1CCC2C(C)[C@@H](Oc3ccc(CN4CCN(C(C)C)CC4)cc3)OC3OC4(C)CCC1C32OO4` (stereo partly drawn) [Example 9, (10S)—O-[4-((4-isopropylpiperazin-1-yl)methyl)phenyl]-dihydroartemisinin], in data set [1], the IC50 was 0.071 µM.
In turn, `C[C@H]1[C@@H](Oc2ccc(Cn3ccnc3)cc2)O[C@@H]2O[C@]3(C)CC[C@H]4[C@H](C)CC[C@@H]1[C@@]24OO3` [Example 2, (10S)—O-[4-((imidazol-1-yl)methyl)phenyl]-dihydroartemisinin] gave a melting point of 65 to 67 °C. For the same compound, the IC50 in data set [4] (setting [6]) was found to be 0.211 µM. For the same compound, the IC50 in data set [5] (setting [7]) amounted to 0.631 µM.
Consider `C[C@H]1[C@@H](Oc2ccc(CN3CCCCC3)cc2)O[C@@H]2O[C@]3(C)CC[C@H]4[C@H](C)CC[C@@H]1[C@@]24OO3` [Example 5, (10S)—O-[4-((piperidin-1-yl)methyl)phenyl]-dihydroartemisinin], for which the figures for the IC50 in data set [1] (Homo sapiens), in data set [2] (Mus musculus) and in data set [3] (Mus musculus) were 0.228 µM, 0.88 µM and 0.804 µM, respectively.
For the compound `CC1CCC2C(C)[C@@H](Oc3ccc(/C=C/C(=O)N4CCN(c5ccccc5)CC4)cc3)OC3OC4(C)CCC1C32OO4` (stereo partly drawn) [Example 26, (10S)—O-{4-[3-oxo-3-(4-phenylpiperazin-1-yl)-1-(E)-propen-1-yl]phenyl}-dihydroartemisinin], the IC50 in data set [2] is 0.145 µM; in data set [3] it was 0.153 µM.
For the compound `C[C@H]1[C@@H](Oc2ccc(CN3CCN(C)CC3)cc2)O[C@@H]2O[C@@]3(C)CC[C@H]4[C@H](C)CC[C@@H]1[C@@]24OO3` [Example 7, (10S)—O-[4-((4-methylpiperazin-1-yl)methyl)phenyl]-dihydroartemisinin], in data set [1], the IC50 was found to be 0.12 µM.
Regarding `CC1CCC2C(C)[C@@H](Oc3ccc(Cn4ccnn4)cc3)OC3OC4(C)CCC1C32OO4` (stereo partly drawn) [Example 3, (10S)—O-[4-((1,2,3-triazol-1-yl)methyl)phenyl]-dihydroartemisinin], the IC50 in data set [4] (MCF-7 cells) came out at 1.32 µM; in data set [5] (setting [8]) it was 0.718 µM.
Regarding `CC1CCC2C(C)C(Oc3ccc(CN4CCN(Cc5ccccc5)CC4)cc3)OC3OC4(C)CCC1C32OO4` [Example 16, 10-O-[4-[(4-benzylpiperazin-1-yl)methyl]phenyl]-(10S)-dihydroartemisinin], the IC50 in data set [1] worked out at 0.105 µM.
For the compound `C[C@H]1[C@@H](Oc2ccc(CC(=O)N3CCCCC3)cc2)O[C@@H]2O[C@@]3(C)CC[C@H]4[C@H](C)CC[C@@H]1[C@@]24OO3` [Example 35, (10S)—O-{4-[2-(piperidin-1-yl)-2-oxoethyl]phenyl}-dihydroartemisinin], the IC50 in data set [4] (MCF-7 cells) was found to be 1.7 µM; in data set [5] (setting [8]), 0.0624 µM.
With “(10S)—O-{4-[2-[4-(pyridin-2-yl)piperazin-1-yl]-2-oxoethyl]phenyl}-dihydroartemisinin [Example 44]”, the IC50 in data set [4] came to 1.49 µM; in data set [5], 0.18 µM.
Regarding `CC1CCC2C(C)[C@@H](Oc3ccc(CN4CCN(c5ccccc5)CC4)cc3)OC3OC4(C)CCC1C32OO4` (some centres unmarked) [Example 10], the IC50 in data set [1] is 0.033 µM; in data set [2] it was 0.07 µM; in data set [3], 0.088 µM.
For `C[C@H]1[C@@H](Oc2ccc(CC(=O)N3CCCC3)cc2)O[C@@H]2O[C@]3(C)CC[C@@H]4[C@H](C)CC[C@@H]1[C@@]24OO3` [Example 33, (10S)—O-{4-[2-(pyrrolidin-1-yl)-2-oxoethyl]phenyl}-dihydroartemisinin], the melting point is 73 to 74 °C. In addition, in data set [4] (setting [6]), the IC50 came to 3.23 µM. The IC50 in data set [5] (setting [7]) was 0.122 µM.
The compound `C[C@H]1[C@@H](Oc2ccc(/C=C/C(=O)N3CCCC3)cc2)O[C@@H]2O[C@]3(C)CC[C@H]4[C@H](C)CC[C@@H]1[C@@]24OO3` [Example 20, (10S)—O-{4-[3-oxo-3-(pyrrolidin-1-yl)-1-(E)-propen-1-yl]phenyl}-dihydroartemisinin] came in with a melting point of 165 to 167 °C. Also, the IC50 in data set [4] (setting [6]) came out at 0.123 µM.
In the case of `C[C@H]1[C@@H](Oc2ccc(CC(=O)N3CCN(c4ccccc4)CC3)cc2)O[C@@H]2O[C@@]3(C)CC[C@H]4[C@H](C)CC[C@@H]1[C@@]24OO3` [Example 40, (10S)—O-{4-[2-(4-phenylpiperazin-1-yl)-2-oxoethyl]phenyl}-dihydroartemisinin], the figures for the IC50 in data set [4] and in data set [5] were 2.66 µM and 0.0791 µM, respectively.
Turning to `C[C@H]1[C@@H](Oc2cccc(CN3CCN(c4ccccc4)CC3)c2)O[C@@H]2O[C@@]3(C)CC[C@H]4[C@H](C)CC[C@@H]1[C@@]24OO3` [Example 18, 10-O-[3-[(4-phenylpiperazin-1-yl)methyl]phenyl]-(10S)-dihydroartemisinin], the IC50 in data set [4] (MCF-7 cells) is 0.69 µM; in data set [5] (setting [8]) it was 0.355 µM.
The like results for `CC1CCC2C(C)[C@@H](Oc3ccc(CC(=O)N4CCC(N5CCCCC5)CC4)cc3)OC3OC4(C)CCC1C32OO4` (stereo partly drawn) [Example 39, (10S)—O-{4-[2-[4-(piperidin-1-yl)piperidin-1-yl]-2-oxoethyl]phenyl}-dihydroartemisinin] were, in that order, 1.15 µM and 0.0229 µM.
Consider `CC1CCC2C(C)[C@@H](Oc3ccc(CC(=O)N4CCOCC4)cc3)OC3OC4(C)CCC1C32OO4` (stereo partly drawn) [Example 34, (10S)—O-{4-[2-(morpholin-4-yl)-2-oxoethyl]phenyl}-dihydroartemisinin], for which the figures for the IC50 in data set [4] (MCF-7 cells) and in data set [5] (setting [8]) were 7.58 µM and 0.239 µM, respectively.
As for `C[C@H]1[C@@H](Oc2ccc(CC(=O)Nc3ccccc3)cc2)O[C@@H]2O[C@]3(C)CC[C@@H]4[C@H](C)CC[C@@H]1[C@@]24OO3` [Example 47, (10S)—O-[4-(2-phenylamino-2-oxoethyl)phenyl]-dihydroartemisinin], the melting point fell in the range of 172 to 173 °C. For the same compound, the IC50 in data set [4] (setting [6]) worked out at 1.55 µM. In addition, the IC50 in data set [5] (setting [7]) amounted to 0.00966 µM.
With `CCN1CCN(C(=O)/C=C/c2ccc(O[C@H]3OC4OC5(C)CCC6C(C)CCC(C3C)C46OO5)cc2)CC1` (stereo partly drawn) [Example 25, (10S)—O-{4-[3-oxo-3-(4-ethylpiperazin-1-yl)-1-(E)-propen-1-yl]phenyl}-dihydroartemisinin], the IC50 was 0.152 µM in data set [2] and 0.223 µM in data set [3].
For the compound `CC1CCC2C(C)[C@@H](Oc3ccc(CN4CCN(CC=Cc5ccccc5)CC4)cc3)OC3OC4(C)CCC1C32OO4` (stereo partly drawn) [Example 17, 10-O-[4-[(4-cinnamylpiperazin-1-yl)methyl]phenyl]-(10S)-dihydroartemisinin], the IC50 in data set [1] is 0.059 µM.
The compound `C[C@H]1[C@@H](Oc2ccc(/C=C/C(=O)Oc3ccc(/C=C/C(=O)N4CCCCC4)cc3)cc2)O[C@@H]2O[C@]3(C)CC[C@H]4[C@H](C)CC[C@@H]1[C@@]24OO3` [Example 31, 4-[(10S)-dihydroartemisinin-10-O-yl]phenyl-acrylic acid-4-[3-oxo-3-(piperidin-1-yl)-1-(E)-propen-1-yl]phenyl ester] yielded a melting point of 160 to 163 °C. Moreover, in data set [4] (setting [6]), the IC50 is 0.063 µM.
`CC1CC(C)CN(C(=O)Cc2ccc(O[C@H]3O[C@@H]4O[C@@]5(C)CC[C@H]6[C@H](C)CC[C@@H]([C@H]3C)[C@@]46OO5)cc2)C1` (stereo partly drawn) [Example 38, (10S)—O-{4-[2-(3,5-dimethylpiperidin-1-yl)-2-oxoethyl]phenyl}-dihydroartemisinin]: the IC50 turned out to be 0.516 µM in data set [4] (MCF-7 cells) and 0.36 µM in data set [5] (setting [8]).
